The values below come from patent US20220211678A1, “USES OF (+)-A-DIHYDROTETRABENAZINE IN METHODS OF TREATING MOVEMENT DISORDER” (ADEPTIO PHARMACEUTICALS LIMITED, priority 2017, published 2022).

For this experiment, the system named is amphetamine-induced rats. The experiment in a line: Amphetamine-induced locomotor activity and stereotypic behaviour, open field arena (Example 2, Studies 1, 2, 4). The settings on record: for normalised total stereotypic behaviour, compared to vehicle-amphetamine group / total distance travelled, compared to vehicle-amphetamine group: amphetamine at t=30 min; for locomotor activity compared to the vehicle-amphetamine group (conclusion) / stereotypic behaviour compared to the vehicle-amphetamine group (conclusion): risperidone 1 mg/kg. The format is in vivo, rat.
Description: Dopaminergic models for Tourette's syndrome use systemic or focal administration of dopamine agonists such as amphetamine. After injection with amphetamine, a test animal expresses stereotypic behaviour. In particular, involvement of a dopaminergic system implicated in Tourette's syndrome wild type mice and rats can be stimulated with amphetamine and the resulting hyperactivity and stereotypies can be reversed with dopamine antagonists such as risperidone and haloperidol (Tourette's syndrome—Animal Models for Screening, Charles River Discovery Research Services, Finland).
All animal experiments were carried out according to the National Institute of Health (NIH) guidelines for the care and use of laboratory animals, and approved by the National Animal Experiment Board, Finland. Male CD (Charles River Laboratories, Germany) at weight range of 200-250 g (165-200 g upon arrival) were used for the experiments. Animals were housed at a standard temperature (22±1° C.) and in a light-controlled environment (lights on from 7 am to 8 pm) with ad libitum access to food and water.
Locomotor activity of the rats was tested in open field arena. The open field test was performed during the rat light cycle and under a normal lighting evenly distributed to the test chambers. The paths of the rats were recorded by activity monitor (Med. Associates Inc.).
Dosing the vehicle, vehicle-amphetamine, (+)-α-DHTBZ or risperidone was done prior to LMA test. The rats were placed in the centre of the arena, and the path was recorded for 60 minutes.
(§1) Animals were grouped as follows: • Group 1: 10 rats treated with Vehicle (t=0 min) and Vehicle (t=30 min) • Group 2: 10 rats treated with Vehicle (t=0 min) and Amphetamine (t=30 min) • Group 3: 10 rats treated with (+)-α-DHTBZ 0.5 mg/kg (t=0 min) and Amphetamine (t=30 min) • Group 4: 10 rats treated with (+)-α-DHTBZ 1 mg/kg (t=0 min) and Amphetamine (t=30 min) • Group 5: 10 rats treated with (+)-α-DHTBZ 1.5 mg/kg (t=0 min) and Amphetamine (t=30 min) • Group 6: 10 rats treated with (+)-α-DHTBZ 2 mg/kg (t=0 min) and Amphetamine (t=30 min) • Group 7: 10 rats treated with risperidone 1 mg/kg (t=0 min) and Amphetamine (t=30 min)
Rats dosed with either vehicle, (+)-α-DHTBZ 0.5 mg/kg, (+)-α-DHTBZ 1 mg/kg, (+)-α-DHTBZ 1.5 mg/kg, (+)-α-DHTBZ 2 mg/kg or Risperidone 1 mg/kg were subjected to LMA testing first for 30 min and then for 60 minutes after vehicle or amphetamine challenge. Resulting locomotor activity was evaluated in 3 min bins and as a total over the testing period.
Rats dosed with either vehicle, (+)-α-DHTBZ 0.5 mg/kg, (+)-α-DHTBZ 1 mg/kg, (+)-α-DHTBZ 1.5 mg/kg, (+)-α-DHTBZ 2 mg/kg or Risperidone 1 mg/kg were subjected to LMA testing first for 30 min and then for 60 minutes after vehicle or amphetamine challenge. Resulting stereotypic activity was evaluated in 3 min bins and as a total over the testing period.
Animals were grouped as follows: • Group 1: 10 rats treated with Vehicle (t=0 min) and Vehicle (t=30 min) • Group 2: 10 rats treated with Vehicle (t=0 min) and Amphetamine (t=30 min) • Group 3: 10 rats treated with (+)-α-DHTBZ 0.1 mg/kg (t=0 min) and Amphetamine (t=30 min) • Group 4: 10 rats treated with (+)-α-DHTBZ 0.25 mg/kg (t=0 min) and Amphetamine (t=30 min) • Group 5: 10 rats treated with risperidone 1 mg/kg (t=0 min) and Amphetamine (t=30 min)
as §1, with “(+)-α-DHTBZ 1” for “(+)-α-DHTBZ 0.5”, “(+)-α-DHTBZ 1.5” for “(+)-α-DHTBZ 1”, “with Valbenazine 1” for “with (+)-α-DHTBZ 1.5”, “with Valbenazine 1.5” for “with (+)-α-DHTBZ 2”

Setting [1] is: Study 1, (+)-α-DHTBZ at all the tested doses (0.5, 1, 1.5, 2 mg/kg).

On to `COc1cc2c(cc1OC)[C@H]1C[C@@H](O)[C@H](CC(C)C)CN1CC2` [(+)-α-dihydrotetrabenazine, (R,R,R)-3-isobutyl-9,10-dimethyloxy-1,3,4,5,7,11b-hexahydro-2H-pyrido[2,1-a]isoquinolin-2-ol], for which the “normalised total stereotypic behaviour, compared to vehicle-amphetamine group” value by setting is: (Study 1, 0.5 mg/kg) “significantly different”; (Study 1, 1 mg/kg) “significantly different”; (Study 1, 1.5 mg/kg) “significantly different”; (Study 1, 2 mg/kg) “significantly different”; (Study 2, 0.1 mg/kg) “significantly different”; (Study 2, 0.25 mg/kg) “significantly different”. The “normalised total stereotypic behaviour, compared to vehicle-amphetamine group” value (Study 4, 1 mg/kg) is listed as “significantly different” and the “normalised total stereotypic behaviour, compared to vehicle-amphetamine group” value (Study 4, 1.5 mg/kg) is given as “significantly different”. For the same molecule, the “locomotor activity compared to the vehicle-amphetamine group (conclusion)” value is given as “lower locomotor activity” under setting [1] and “lower locomotor activity” (Study 2, (+)-α-DHTBZ at 0.25 mg/kg). Also, the “stereotypic behaviour compared to the vehicle-amphetamine group (conclusion)” value reads like this: under setting [1], “reduced stereotypic behaviour”; (Study 2, (+)-α-DHTBZ at both the tested doses (0.1, 0.25 mg/kg)) “reduced stereotypic behaviour”. For the setting “Study 4, 1 mg/kg and 1.5 mg/kg”, the “locomotor activity compared to the vehicle-amphetamine group and the corresponding dose of Valbenazine (conclusion)” value is “lower locomotor activity”. The “total distance travelled, compared to vehicle-amphetamine group” value (Study 4, 1 mg/kg) was “significantly different” and the “total distance travelled, compared to vehicle-amphetamine group” value (Study 4, 1.5 mg/kg) is recorded as “significantly different”. Moreover, the “stereotypic behaviour compared to the vehicle-amphetamine group and the corresponding dose of Valbenazine (conclusion)” value (Study 4, both the tested doses (1 mg/kg and 1.5 mg/kg)) is “reduced stereotypic behaviour”.
